Measurements published in PubChem BioAssay (NCI).
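Test compounds were applied to cells in 96-well plates for 48 hours at 5 doses. GI50: concentration for 50% inhibition of growth. At the TGI there is no net growth.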

Legend:
Assay in all cases: growth of human tumour cells (NCI), 48 h
786-0 renal = system: 786-0 renal
A498 renal = system: A498 renal
A549 NSCLC = system: A549 NSCLC
ACHN renal = system: ACHN renal
BT-549 breast = system: BT-549 breast
CAKI-1 renal = system: CAKI-1 renal
CCRF-CEM leukemia = system: CCRF-CEM leukemia
COLO 205 colon = system: COLO 205 colon
DU-145 prostate = system: DU-145 prostate
EKVX NSCLC = system: EKVX NSCLC
HCC-2998 colon = system: HCC-2998 colon
HCT-116 colon = system: HCT-116 colon
HCT-15 colon = system: HCT-15 colon
HL-60(TB) leukemia = system: HL-60(TB) leukemia
HOP-62 NSCLC = system: HOP-62 NSCLC
HOP-92 NSCLC = system: HOP-92 NSCLC
HS 578T breast = system: HS 578T breast
HT29 colon = system: HT29 colon
IGROV1 ovarian = system: IGROV1 ovarian
K-562 leukemia = system: K-562 leukemia
KM12 colon = system: KM12 colon
LOX IMVI melanoma = system: LOX IMVI melanoma
M14 melanoma = system: M14 melanoma
MALME-3M melanoma = system: MALME-3M melanoma
MCF7 breast = system: MCF7 breast
MDA-MB-231 breast = system: MDA-MB-231 breast
MDA-MB-435 = system: MDA-MB-435
MDA-MB-468 breast = system: MDA-MB-468 breast
MOLT-4 leukemia = system: MOLT-4 leukemia
NCI-H226 lung = system: NCI-H226 lung
NCI-H23 lung = system: NCI-H23 lung
NCI-H460 lung = system: NCI-H460 lung
NCI-H522 lung = system: NCI-H522 lung
NCI/ADR-RES ovarian = system: NCI/ADR-RES ovarian
OVCAR-3 ovarian = system: OVCAR-3 ovarian
OVCAR-4 ovarian = system: OVCAR-4 ovarian
OVCAR-5 ovarian = system: OVCAR-5 ovarian
OVCAR-8 ovarian = system: OVCAR-8 ovarian
PC-3 prostate = system: PC-3 prostate
RPMI-8226 leukemia = system: RPMI-8226 leukemia
RXF 393 renal = system: RXF 393 renal
SF-268 CNS = system: SF-268 CNS
SF-295 CNS = system: SF-295 CNS
SF-539 CNS = system: SF-539 CNS
SK-MEL-2 melanoma = system: SK-MEL-2 melanoma
SK-MEL-28 melanoma = system: SK-MEL-28 melanoma
SK-MEL-5 melanoma = system: SK-MEL-5 melanoma
SK-OV-3 ovarian = system: SK-OV-3 ovarian
SN12C renal = system: SN12C renal
SNB-19 CNS = system: SNB-19 CNS
SNB-75 CNS = system: SNB-75 CNS
SR leukemia = system: SR leukemia
SW-620 colon = system: SW-620 colon
T-47D breast = system: T-47D breast
TK-10 renal = system: TK-10 renal
U251 CNS = system: U251 CNS
UACC-257 melanoma = system: UACC-257 melanoma
UACC-62 melanoma = system: UACC-62 melanoma
UO-31 renal = system: UO-31 renal

Q: What does the source list for `O=C(CNc1nc(-c2ccccc2)cs1)Nc1cccc([N+](=O)[O-])c1`?
A: GI50 (786-0 renal): 253 nM; TGI (786-0 renal): 663 nM; GI50 (A498 renal): 223 nM; TGI (A498 renal): 555 nM; GI50 (A549 NSCLC): 323 nM; TGI (A549 NSCLC): 1390 nM; GI50 (ACHN renal): 200 nM; TGI (ACHN renal): 436 nM; GI50 (BT-549 breast): 167 nM; TGI (BT-549 breast): 347 nM; GI50 (CAKI-1 renal): 182 nM; TGI (CAKI-1 renal): 558 nM; GI50 (CCRF-CEM leukemia): 58.7 nM; TGI (CCRF-CEM leukemia): 4.52 µM; GI50 (COLO 205 colon): 193 nM; TGI (COLO 205 colon): 367 nM; GI50 (DU-145 prostate): 264 nM; TGI (DU-145 prostate): 730 nM; GI50 (EKVX NSCLC): 231 nM; TGI (EKVX NSCLC): 580 nM; GI50 (HCC-2998 colon): 175 nM; TGI (HCC-2998 colon): 321 nM; GI50 (HCT-116 colon): 188 nM; TGI (HCT-116 colon): 590 nM; GI50 (HCT-15 colon): 93 nM; TGI (HCT-15 colon): 413 nM; GI50 (HL-60(TB) leukemia): 198 nM; TGI (HL-60(TB) leukemia): 937 nM; GI50 (HOP-62 NSCLC): 216 nM; TGI (HOP-62 NSCLC): 469 nM; GI50 (HOP-92 NSCLC): 243 nM; TGI (HOP-92 NSCLC): 660 nM; GI50 (HS 578T breast): 230 nM; TGI (HS 578T breast): 739 nM; GI50 (HT29 colon): 142 nM; TGI (HT29 colon): 357 nM; GI50 (IGROV1 ovarian): 108 nM; TGI (IGROV1 ovarian): 459 nM; GI50 (K-562 leukemia): 223 nM; TGI (K-562 leukemia): 11.2 µM; GI50 (KM12 colon): 246 nM; TGI (KM12 colon): 693 nM; GI50 (LOX IMVI melanoma): 106 nM; TGI (LOX IMVI melanoma): 238 nM; GI50 (M14 melanoma): 177 nM; TGI (M14 melanoma): 347 nM; GI50 (MALME-3M melanoma): 172 nM; TGI (MALME-3M melanoma): 314 nM; GI50 (MCF7 breast): 166 nM; TGI (MCF7 breast): 551 nM; GI50 (MDA-MB-231 breast): 196 nM; TGI (MDA-MB-231 breast): 375 nM; GI50 (MDA-MB-435): 170 nM; TGI (MDA-MB-435): 319 nM; GI50 (MDA-MB-468 breast): 185 nM; TGI (MDA-MB-468 breast): 358 nM; GI50 (MOLT-4 leukemia): 117 nM; TGI (MOLT-4 leukemia): 2530 nM; GI50 (NCI-H226 lung): 188 nM; TGI (NCI-H226 lung): 444 nM; GI50 (NCI-H23 lung): 72.4 nM; TGI (NCI-H23 lung): 202 nM; GI50 (NCI-H460 lung): 136 nM; TGI (NCI-H460 lung): 616 nM; GI50 (NCI-H522 lung): 129 nM; TGI (NCI-H522 lung): 297 nM; GI50 (NCI/ADR-RES ovarian): 175 nM; TGI (NCI/ADR-RES ovarian): 381 nM; GI50 (OVCAR-3 ovarian): 251 nM; TGI (OVCAR-3 ovarian): 708 nM; GI50 (OVCAR-4 ovarian): 223 nM; TGI (OVCAR-4 ovarian): 511 nM; GI50 (OVCAR-5 ovarian): 203 nM; TGI (OVCAR-5 ovarian): 413 nM; GI50 (OVCAR-8 ovarian): 222 nM; TGI (OVCAR-8 ovarian): 568 nM; GI50 (PC-3 prostate): 217 nM; TGI (PC-3 prostate): 1860 nM; GI50 (RPMI-8226 leukemia): 291 nM; TGI (RPMI-8226 leukemia): 1230 nM; GI50 (RXF 393 renal): 128 nM; TGI (RXF 393 renal): 269 nM; GI50 (SF-268 CNS): 257 nM; TGI (SF-268 CNS): 725 nM; GI50 (SF-295 CNS): 223 nM; TGI (SF-295 CNS): 519 nM; GI50 (SF-539 CNS): 180 nM; TGI (SF-539 CNS): 358 nM; GI50 (SK-MEL-2 melanoma): 177 nM; TGI (SK-MEL-2 melanoma): 323 nM; GI50 (SK-MEL-28 melanoma): 199 nM; TGI (SK-MEL-28 melanoma): 379 nM; GI50 (SK-MEL-5 melanoma): 166 nM; TGI (SK-MEL-5 melanoma): 302 nM; GI50 (SK-OV-3 ovarian): 128 nM; TGI (SK-OV-3 ovarian): 335 nM; GI50 (SN12C renal): 184 nM; TGI (SN12C renal): 469 nM; GI50 (SNB-19 CNS): 206 nM; TGI (SNB-19 CNS): 500 nM; GI50 (SNB-75 CNS): 136 nM; TGI (SNB-75 CNS): 320 nM; GI50 (SR leukemia): 175 nM; TGI (SR leukemia): > 34.9 µM; GI50 (SW-620 colon): 66.3 nM; TGI (SW-620 colon): 914 nM; GI50 (T-47D breast): 218 nM; TGI (T-47D breast): 632 nM; GI50 (TK-10 renal): 197 nM; TGI (TK-10 renal): 660 nM; GI50 (U251 CNS): 262 nM; TGI (U251 CNS): 927 nM; GI50 (UACC-257 melanoma): 256 nM; TGI (UACC-257 melanoma): 826 nM; GI50 (UACC-62 melanoma): 119 nM; TGI (UACC-62 melanoma): 245 nM; GI50 (UO-31 renal): 169 nM; TGI (UO-31 renal): 444 nM
